Read-outs that look alike come from different tables or passages of the source.
Molecular target: T1, PAF-Rezeptor (Homo sapiens, UniProt P25105)
T1 construct: endogenous in cells; host or cells: intact human platelets from blood of healthy donors, purified on Sepharose CL-2B
Test: [^3H]PAF receptor binding on vital human platelets
Protocol: [^3H]PAF-Rezeptor-Bindung an vitalen humanen Blutplättchen
Bestimmt wird die konkurrierende Wechselwirkung von Prüfsubstanzen (hier PAF-Antagonisten) mit der bekannten Wechselwirkung des Radioliganden [^3H]PAF zum gleichen Rezeptor.
Die Bindungsstudien wurden an vitalem menschlichen Thrombozyten vorgenommen. Blutproben von gesunden Spendern wurden mit ACD-Puffer verdünnt und zentrifugiert (15 Min., 160 x g). Das blättchenreiche Plasma wird durch Chromatographie an Sepharose CL-2B [Zum Eluieren: HEPES-Puffer, pH 7,4 20° C] gereinigt.
Definierte Mengen [z.B. 800 µl] der Blättchensuspension wurden 90 Min. bei Raumtemperatur inkubiert, d.h. vermischt mit: • a) einer […] [^3H]PAF-Lösung, verdünnt mit Puffer. • b) mit einer 30 p molaren [^3H] PAF-Lösung, die gleichzeitig eine u.-molare (nicht markierte) PAF-Lösung enthält, • c) mit der 30 pmolaren [^3H]PAF-Lösung und den Lösungen der Prüfsubstanzen (unterschiedliche Konzentrationen) • a) Dient zur Ermittlung der totalen Bindung, • b) Dient zur Ermittlung der unspezifischen Bindung.
Die Reaktion wurde durch Vakuumfiltration abgestoppt. Die Filter mit den Blutplättchen werden mit Scintilationsflüssigkeit versetzt und die verbliebene Radioaktivität in einem Counter gemessen. Die spezifische Bindung ergibt sich aus totaler Bindung minus unspezifischer Bindung. Man bestimmt entweder die ICso-Werte (d.h. jene Konzentration der Prüfsubstanz, die 50 % des Radioliganden - hier [^3H] PAF - vom Rezeptor verdrängt), und gibt diese an. Oder errechnet hieraus die Ki-Werte. Dies kann computerunterstützt durch ein Iterationsverfahren der Bindungskurven geschehen. ICso- bzw. Ki-Werte sind ein Maß für die Rezeptoraffinität der Testsubstanz. Kleinere Werte zeigen die höhere Affinität an.

[1] = four separated isomers of Example 9d, read-out: [^3H]PAF-Bindung (Ki)

T1 sequence (P25105 whole entry): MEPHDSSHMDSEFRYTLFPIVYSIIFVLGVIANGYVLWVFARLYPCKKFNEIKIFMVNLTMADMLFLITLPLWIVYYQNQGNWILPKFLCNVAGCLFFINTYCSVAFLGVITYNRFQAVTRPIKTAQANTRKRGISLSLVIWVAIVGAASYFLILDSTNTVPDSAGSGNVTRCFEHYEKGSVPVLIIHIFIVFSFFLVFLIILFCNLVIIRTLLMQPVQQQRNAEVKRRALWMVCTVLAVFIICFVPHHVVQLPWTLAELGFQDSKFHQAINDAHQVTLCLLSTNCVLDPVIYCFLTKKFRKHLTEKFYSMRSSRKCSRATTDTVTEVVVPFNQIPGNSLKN

Compound | Ki [1] [nM] | also measured
Cc1nnc2n1-c1sc3c(c1C(c1ccccc1Cl)=NC2C)CC(C(=O)N1CCOCC1)C3 (stereo not shown) [Beispiel 9d] |  | Ki (33 : 67 mixture of diastereomers, read-out: [^3H]PAF-Bindung: K): 83 nM
Cc1nnc2n1-c1sc3c(c1C(c1ccccc1Cl)=NC2C)CC(C(=O)N1CCOCC1)C3 (single isomer, unassigned; (-)) [(-) 9dA] | 70 | 
Cc1nnc2n1-c1sc3c(c1C(c1ccccc1Cl)=NC2C)CC(C(=O)N1CCOCC1)C3 (single isomer, unassigned; (+)) [(+) 9dA] | 400 | 
Cc1nnc2n1-c1sc(CCC(=O)N3CCOCC3)cc1C(c1ccccc1Cl)=NC2C (single isomer, unassigned) [IB, 2-(Morpholinylcarbonylethyl)-4-(2-chlorphenyl)-6,9-dimethyl-6H-thieno(3,2-f][1,2,4]triazolo[4,3-a][1,4]diazepin] |  | bindet stärker an den PAF-Rezeptor als die (+)-Form (1A) (ratio of binding, (-)-form versus (+)-form of Example 1): 35 mal
3-(Morpholinocarbonyl)-5-(2-chlorphenyl)-7,10-dimethyl-3,4-dihydro-2H,7H-cyclopenta[4,5,thieno-[3,2-f]-[1.2.4]triazolo[4.3-a] [1,4]diazepin [(-) 9dB] | 8 | 
Cc1nnc2n1-c1sc3c(c1C(c1ccccc1Cl)=NC2C)CC(C(=O)N1CCOCC1)C3 (single isomer, unassigned; (+)) [(+) 9dB] | 3000 | 
Cc1nnc2n1-c1sc(CCC(=O)N3CCOCC3)cc1C(c1ccccc1Cl)=NC2C (racemic) [Beispiel 1, 2-(Morpholinylcarbonylethyl)-4-(2-chlorphenyl)-6,9-dimethyl-6H-thieno(3,2-f][1,2,4]triazolo[4,3-a][1,4]diazepin] |  | Ki (not stated whether IC50 or Ki, read-out: Affinität zum PAF-Rezeptor): 16 nM

Reference: patent publication EP0368175A1, “3S,7S-3-(Morpholinocarbonyl)-5-(2-chlorphenyl)-7,10-dimethyl-3,4-dihydro-2H,7H-cyclopenta[4,5]thieno[3,2-f][1,2,4]triazolo[4,3-a][1,4]diazepine” (BOEHRINGER INGELHEIM KG, priority 1988, dated 1990)
